The target of the assay is Human Factor D (Homo sapiens (Human), UniProt P00746). Nature of the assay: Human Factor D Assay. It counts as biochemical. To be noted: Human Factor D assay of Example 8; Table 2; read-out: IC50. The method, boiled down: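 Factor D (from human serum) 80 nM final + cpd, 5 min RT, 50 mM Tris/1M NaCl pH 7.5; add Z-L-Lys-SBzl 100 μM and DTNB 100 μM final. IC50 by nonlinear fit of rates vs [cpd].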
Chain of Human Factor D (P00746 26-253): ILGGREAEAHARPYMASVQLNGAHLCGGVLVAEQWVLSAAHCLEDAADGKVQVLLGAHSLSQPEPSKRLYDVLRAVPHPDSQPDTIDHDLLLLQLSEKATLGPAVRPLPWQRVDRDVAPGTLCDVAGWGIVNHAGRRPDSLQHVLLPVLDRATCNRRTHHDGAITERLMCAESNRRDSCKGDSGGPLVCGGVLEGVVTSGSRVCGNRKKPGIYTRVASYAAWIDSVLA
Broadly, the IC50 is the point on the concentration scale where inhibition reaches its midpoint. On to `CC(=O)c1nn(CC(=O)N2C[C@H](F)C[C@H]2C(=O)Nc2cccc(-c3cc(F)ccc3S(C)(=O)=O)c2F)c2ccc(-c3cnc(C)nc3)cc12` [Compound 305, (2S,4R)-1-(2-(3-Acetyl-5-(2-methylpyrimidin-5-yl)-1H-indazol-1-yl)acetyl)-N-(2,5′-difluoro-2′-(methylsulfonyl)-[1,1′-biphenyl]-3-yl)-4-fluoropyrrolidine-2-carboxamide], for which the half-maximal inhibitory concentration (IC50) was below 1 µM. As for `CC(=O)c1nn(CC(=O)N2C[C@H](F)C[C@H]2C(=O)Nc2cncc(Br)n2)c2ccc(-c3cnc4cc(C)nn4c3)cc12` [Compound 306, (2S,4R)-1-(2-(3-acetyl-5-(2-methylpyrazolo[1,5-a]pyrimidin-6-yl)-1H-indazol-1-yl)acetyl)-N-(6-bromopyrazin-2-yl)-4-fluoropyrrolidine-2-carboxamide], the figure is below 1 µM; as for `Cc1ncc(-c2ccc3c(c2)c(C(N)=O)cn3CC(=O)N2C[C@H](F)C[C@H]2C(=O)Nc2cccc(Br)n2)cn1` [Compound 307, 1-(2-((2S,4R)-2-(6-bromopyridin-2-ylcarbamoyl)-4-fluoropyrrolidin-1-yl)-2-oxoethyl)-5-(2-methylpyrimidin-5-yl)-1H-indole-3-carboxamide], below 1 µM; as for `CC(=O)c1nn(CC(=O)N2CCS[C@H]2C(=O)Nc2cccc(Br)n2)c2ccc(-c3cnc(C)nc3)cc12` [Compound 308, (S)-3-(2-(3-acetyl-5-(2-methylpyrimidin-5-yl)-1H-indazol-1-yl)acetyl)-N-(6-bromopyridin-2-yl)thiazolidine-2-carboxamide], below 1 µM. Under `CC(=O)c1nn(CC(=O)N2C[C@H](F)C[C@H]2C(=O)Nc2cccc(Br)n2)c2ccc(-c3cnc4n3CCCC4)cc12` [Compound 309, (2S,4R)-1-(2-(3-acetyl-5-(5,6,7,8-tetrahydroimidazo [1,2-a]pyridin-3-yl)-1H-indazol-1-yl)acetyl)-N-(6-bromopyridin-2-yl)-4-fluoropyrrolidine-2-carboxamide] stands below 1 µM; under `CC(=O)c1cn(CC(=O)N2C[C@H](F)C[C@H]2C(=O)Nc2cncc(Br)n2)c2ccc(-c3cnc4cc(C)nn4c3)cc12` [Compound 310, (2S,4R)-1-(2-(3-acetyl-5-(2-methylpyrazolo[1,5-a]pyrimidin-6-yl)-1H-indol-1-yl)acetyl)-N-(6-bromopyrazin-2-yl)-4-fluoropyrrolidine-2-carboxamide], below 1 µM. Under `CC(=O)c1nn(CC(=O)N2C[C@H](F)C[C@H]2C(=O)Nc2cccc(Br)n2)c2ccc(-c3ccc4nc(C)nn4c3)cc12` [Compound 311, (2S,4R)-1-(2-(3-acetyl-5-(2-methyl-[1,2,4]triazolo[1,5-a]pyridin-6-yl)-1H-indazol-1-yl)acetyl)-N-(6-bromopyridin-2-yl)-4-fluoropyrrolidine-2-carboxamide] stands below 1 µM; under `CC(=O)c1nn(CC(=O)N2CSC[C@H]2C(=O)Nc2cccc(Br)n2)c2ccc(-c3cnc(C)nc3)cc12` [Compound 312, (R)-3-(2-(3-acetyl-5-(2-methylpyrimidin-5-yl)-1H-indazol-1-yl)acetyl)-N-(6-bromopyridin-2-yl)thiazolidine-4-carboxamide], below 1 µM. As to `CC(=O)c1nn(CC(=O)N2C[C@H](F)C[C@H]2C(=O)Nc2cncc(C(F)(F)F)n2)c2ccc(-c3cnc4cc(C)nn4c3)cc12` [Compound 313, (2S,4R)-1-(2-(3-acetyl-5-(2-methylpyrazolo[1,5-a]pyrimidin-6-yl)-1H-indazol-1-yl)acetyl)-4-fluoro-N-(6-(trifluoromethyl)pyrazin-2-yl)pyrrolidine-2-carboxamide], the IC50 was below 1 µM.

Take `Cc1ncc(-c2cc3c(s2)c(C(N)=O)nn3CC(=O)N2C[C@H](F)C[C@H]2C(=O)Nc2cccc(-c3ccccc3Cl)c2F)cn1` [Compound 314, 1-(2-((2S,4R)-2-((2′-Chloro-2-fluoro-[1,1′-biphenyl]-3-yl)carbamoyl)-4-fluoropyrrolidin-1-yl)-2-oxoethyl)-5-(2-methylpyrimidin-5-yl)-1H-thieno[3,2-c]pyrazole-3-carboxamide]: the IC50 was below 1 µM.

`CC(=O)c1nn(CC(=O)N2CC[C@@H](O)[C@H]2C(=O)Nc2cccc(Br)n2)c2ccc(-c3cnc(C)nc3)cc12` [Compound 315, (2S,3R)-1-(2-(3-acetyl-5-(2-methylpyrimidin-5-yl)-1H-indazol-1-yl)acetyl)-N-(6-bromopyridin-2-yl)-3-hydroxypyrrolidine-2-carboxamide]: the IC50 was below 1 µM. Take `COCCOCCOCCOCCOCCOc1ncc(-c2ccc3c(c2)c(C(C)=O)nn3CC(=O)N2C[C@H](F)C[C@H]2C(=O)Nc2cccc(Br)n2)cn1` [Compound 316]: the half-maximal inhibitory concentration (IC50) is below 1 µM.

On to `CC(=O)c1nn(CC(=O)N2C[C@H](F)C[C@H]2C(=O)Nc2cncc(Br)n2)c2ccc(-c3cnc(C)nc3)cc12` [Compound 317, (2S,4R)-1-(2-(3-acetyl-5-(2-methylpyrimidin-5-yl)-1H-indazol-1-yl)acetyl)-N-(6-bromopyrazin-2-yl)-4-fluoropyrrolidine-2-carboxamide], for which the IC50 was below 1 µM.

`COc1cc2c(cc1-c1cnc(C)nc1)c(C(C)=O)cn2CC(=O)N1C[C@H](F)C[C@H]1C(=O)Nc1cccc(-c2ccccc2Cl)c1F` [Compound 318, (2S,4R)-1-(2-(3-Acetyl-6-methoxy-5-(2-methylpyrimidin-5-yl)-1H-indol-1-yl)acetyl)-N-(2′-chloro-2-fluoro-[1,1′-biphenyl]-3-yl)-4-fluoropyrrolidine-2-carboxamide]: the half-inhibitory concentration (IC50) was below 1 µM. `COc1cc2c(cc1-c1cnc(C)nc1)c(C(C)=O)cn2CC(=O)N1C[C@H](F)C[C@H]1C(=O)Nc1cccc(Br)n1` [Compound 319, (2S,4R)-1-(2-(3-Acetyl-6-methoxy-5-(2-methylpyrimidin-5-yl)-1H-indol-1-yl)acetyl)-N-(6-bromopyridin-2-yl)-4-fluoropyrrolidine-2-carboxamide]: the 50% inhibitory concentration (IC50) was below 1 µM.

As for `CC(=O)c1cn(CC(=O)N2C[C@H](F)C[C@H]2C(=O)Nc2cccc(-c3ccccc3Cl)c2F)c2cc(O)c(-c3cnc(C)nc3)cc12` [Compound 320, (4R)-1-(2-(3-Acetyl-6-hydroxy-5-(2-methylpyrimidin-5-yl)-1H-indol-1-yl)acetyl)-N-(2′-chloro-2-fluoro-[1,1′-biphenyl]-3-yl)-4-fluoropyrrolidine-2-carboxamide], the IC50 was below 1 µM.

Consider `CC(=O)c1nn(CC(=O)N2C[C@H](F)C[C@H]2C(=O)Nc2cccc(Br)n2)c2ccc(-c3cnc4nc(C)ccn34)cc12` [Compound 321, (2S,4R)-1-(2-(3-acetyl-5-(7-methylimidazo[1,2-a]pyrimidin-3-yl)-1H-indazol-1-yl)acetyl)-N-(6-bromopyridin-2-yl)-4-fluoropyrrolidine-2-carboxamide], for which the IC50 was below 1 µM. As to `CC(=O)c1nn(CC(=O)N2C[C@H](F)C[C@H]2C(=O)Nc2cncc(Br)n2)c2ccc(-c3cnc4ccnn4c3)cc12` [Compound 322, (2S,4R)-1-(2-(3-acetyl-5-(pyrazolo[1,5-a]pyrimidin-6-yl)-1H-indazol-1-yl)acetyl)-N-(6-bromopyrazin-2-yl)-4-fluoropyrrolidine-2-carboxamide], the IC50 is below 1 µM. Under `CC(=O)c1cn(CC(=O)N2C[C@H](F)C[C@H]2C(=O)Nc2cncc(Br)n2)c2ccc(-c3cnc4ccnn4c3)cc12` [Compound 323, (2S,4R)-1-(2-(3-acetyl-5-(pyrazolo[1,5-a]pyrimidin-6-yl)-1H-indol-1-yl)acetyl)-N-(6-bromopyrazin-2-yl)-4-fluoropyrrolidine-2-carboxamide] stands below 1 µM; under `CC(=O)c1nn(CC(=O)N2[C@@H]3C[C@@H]3C[C@H]2C(=O)Nc2cncc(Br)n2)c2ccc(-c3cnc4cc(C)nn4c3)cc12` [Compound 324, (1R,3S,5R)-2-(2-(3-acetyl-5-(2-methylpyrazolo[1,5-a]pyrimidin-6-yl)-1H-indazol-1-yl)acetyl)-N-(6-bromopyrazin-2-yl)-2-azabicyclo[3.1.0] hexane-3-carboxamide], below 1 µM; under `CC(=O)c1nn(CC(=O)N2C[C@H](F)C[C@H]2C(=O)Nc2cncc(Br)n2)c2ccc(-c3ccc4nc(C)nn4c3)cc12` [Compound 325, (2S,4R)-1-(2-(3-acetyl-5-(2-methyl-[1,2,4]triazolo[1,5-a]pyridin-6-yl)-1H-indazol-1-yl)acetyl)-N-(6-bromopyrazin-2-yl)-4-fluoropyrrolidine-2-carboxamide], below 1 µM.

As to `CC(=O)c1nn(CC(=O)N2C[C@H](F)C[C@H]2C(=O)Nc2cccc(-c3sccc3Cl)c2F)c2ccc(-c3cnc(C)nc3)cc12` [Compound 327, (2S,4R)-1-(2-(3-acetyl-5-(2-methylpyrimidin-5-yl)-1H-indazol-1-yl)acetyl)-N-(3-(3-chlorothiophen-2-yl)-2-fluorophenyl)-4-fluoropyrrolidine-2-carboxamide], the IC50 was below 1 µM. In the case of `CC(=O)c1cn(CC(=O)N2C[C@H](F)C[C@H]2C(=O)Nc2cccc(Br)n2)c2cc(O)c(-c3cnc(C)nc3)cc12` [Compound 328, (4R)-1-(2-(3-Acetyl-6-hydroxy-5-(2-methylpyrimidin-5-yl)-1H-indol-1-yl)acetyl)-N-(6-bromopyridin-2-yl)-4-fluoropyrrolidine-2-carboxamide], the IC50 was below 1 µM. Regarding `CC(=O)c1nn(CC(=O)N2CSC(C)(C)[C@H]2C(=O)NCc2cccc(Cl)c2F)c2ccc(-c3cnc(C)nc3)cc12` [Compound 329, (R)-3-(2-(3-acetyl-5-(2-methylpyrimidin-5-yl)-1H-indazol-1-yl)acetyl)-N-(3-chloro-2-fluorobenzyl)-5,5-dimethylthiazolidine-4-carboxamide], the IC50 was in the range of 1 to 10 µM. As for `CC(=O)c1nn(CC(=O)N2C[C@H](F)C[C@H]2C(=O)Nc2cccc(OC(F)(F)F)n2)c2ccc(-c3cnc4cc(C)nn4c3)cc12` [Compound 330, (2S,4R)-1-(2-(3-acetyl-5-(2-methylpyrazolo[1,5-a]pyrimidin-6-yl)-1H-indazol-1-yl)acetyl)-4-fluoro-N-(6-(trifluoromethoxy)pyridin-2-yl)pyrrolidine-2-carboxamide], the figure is below 1 µM.
